From patent US20240166669A1, “QUINAZOLINE AMINE DERIVATIVES AS KRAS INHIBITORS” (Nikang Therapeutics, Inc., priority 2021, published 2024)

Target: T1, K-Ras G12D (Homo sapiens, UniProt P01116, G12D)
T1 construct: AGS (Cobioer, CBP60476) cell lines which harbor KRAS G12D mutation; host or cells: AGS
Assay: p-ERK Cellular 2-Plate Assay (Biological Example 2)
Type: cell-based
Details: AGS cells (KRAS G12D), 3 h treatment, AlphaLISA p-ERK1/2, 2-plate; Biological Example 2 (unmarked values); read-out: AGS PERK EC50
Method: The ability of the compound of Formula (IIA′), (II′), or (II) or a pharmaceutically acceptable salt thereof (test compound) to inhibit K-Ras G12D activity was tested using AGS (Cobioer, CBP60476) cell lines which harbor KRAS G12D mutation as described below.
AGS (Cobioer, CBP60476) were seeded in 384-well plates and cultured overnight (10.000 cells per well 40 μl total volume). The following morning, cells were treated with test compound, with staring concentration at 10 μM and 3-fold dilution down to 0.5 nM for 3 h at 37° C., DMSO treatment served as control. p-ERK was then measured using AlphaLISA SureFire Ultra p-ERK1/2 (Thr202/Tyr204) Assay Kit (Perkin Elmer, cat #ALSU-PERK) following the manufacturer's instruction as follows.
Briefly, the culture medium was removed and 20 μl 1× lysis buffer was added to each well, followed by 30 minutes incubation on a plate shaker at room temperature. Then 10 μl of lysate was transferred to a white 384-well plate. Acceptor mixture was prepared according to manufacturer's instruction. 5 μl acceptor mixture was added to the cell lysate and the plate was wrapped with foil, spun at 500 rpm for 10 s, and incubated at RT for 60 min. Donor mixture was prepared under subdued light. 5 μl donor mixture was added to the cell lysate and the plate was spun at 500 rpm for 10s and incubated at RT for another 60 min. in the dark. Signal was then measured on a EnVision 2105 multimode plate reader. Percentage inhibition was calculated with DMSO treatment as 100% of signal, and IC50 was calculated by XLfit 5.5.x.

T1 sequence (P01116 1-188 isoform P01116-2 G12D): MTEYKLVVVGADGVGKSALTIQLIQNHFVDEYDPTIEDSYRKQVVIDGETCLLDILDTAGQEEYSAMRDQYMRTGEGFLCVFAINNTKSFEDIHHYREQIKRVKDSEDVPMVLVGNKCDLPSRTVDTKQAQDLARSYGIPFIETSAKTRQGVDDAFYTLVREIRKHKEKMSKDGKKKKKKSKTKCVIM

EC50 [µM]	Structure (SMILES)
0.033	C#Cc1c(F)ccc2cccc(-c3ncc4c(N5C[C@H]6CC[C@@H](C5)N6)nc(OCC56CCCN5CC(=CC)C6)nc4c3F)c12 (stereo partly drawn) [Example 48, 4-((1R,5S)-3,8-diazabicyclo[3.2.1]octan-3-yl)-2-((2-ethylidenetetrahydro-1H-pyrrolizin-7a(5H)-yl)methoxy)-7-(8-ethynyl-7-fluoronaphthalen-1-yl)-8-fluoropyrido[4,3-d]pyrimidine]
0.128	C#Cc1cccc2cc(O)cc(-c3ncc4c(N5CC6CC(=C)C(C5)N6)nc(OCC56CCCN5CCC6)nc4c3F)c12 (stereo not shown) [Example 10, 5-ethynyl-4-(8-fluoro-4-(6-methylene-3,8-diazabicyclo[3.2.1]octan-3-yl)-2-((tetrahydro-1H-pyrrolizin-7a(5H)-yl)methoxy)pyrido[4,3-d]pyrimidin-7-yl)naphthalen-2-ol]
0.105	C#Cc1c(F)ccc2cccc(-c3ncc4c(N5CC6CCC(C5)N6)nc(OCC56CCCN5Cc5ccccc56)nc4c3F)c12 (stereo not shown) [Example 12, 9b-(((4-(3,8-diazabicyclo[3.2.1]octan-3-yl)-7-(8-ethynyl-7-fluoronaphthalen-1-yl)-8-fluoropyrido[4,3-d]pyrimidin-2-yl)oxy)methyl)-2,3,5,9b-tetrahydro-1H-pyrrolo[2,1-a]isoindole]
0.046	C#Cc1cccc2cc(O)cc(-c3ncc4c(N5CC6CCC(C5)N6)nc(OCC56CCCN5Cc5cccnc56)nc4c3F)c12 (stereo not shown) [Example 28, 4-(4-(3,8-diazabicyclo[3.2.1]octan-3-yl)-2-((8,9-dihydro-5H-pyrido[2,3-a]-pyrrolizin-9a(7H)-yl)methoxy)-8-fluoropyrido[4,3-d]pyrimidin-7-yl)-5-ethynylnaphthalen-2-ol]
0.02	C#Cc1cccc2cc(O)cc(-c3ncc4c(N5CC6CCC(C5)N6)nc(OCC56CCCN5Cc5cccc(F)c56)nc4c3F)c12 (stereo not shown) [Example 27, 4-(4-(3,8-diazabicyclo[3.2.1]octan-3-yl)-8-fluoro-2-((9-fluoro-2,3-dihydro-1H-pyrrolo[2,1-a]isoindol-9b(5H)-yl)-methoxy)pyrido[4,3-d]pyrimidin-7-yl)-5-ethynylnaphthalen-2-ol]
> 0.1	C#Cc1c(F)ccc2cc(O)cc(-c3ncc4c(N5C[C@H]6CC[C@@H](C5)N6)nc(OC[C@@]56CC7COc8ccccc8C7N5C[C@@H](F)C6)nc4c3F)c12 (stereo partly drawn) [Example 41, 4-(4-((1R,5S)-3,8-diazabicyclo[3.2.1]octan-3-yl)-8-fluoro-2-(((9S)-9-fluoro-6a,9,10,11a-tetrahydro-6H,7H-chromeno[3,4-b]pyrrolizin-7a(8H)-yl)methoxy)pyrido[4,3-d]pyrimidin-7-yl)-5-ethynyl-6-fluoronaphthalen-2-ol]
0.001	C=C1CN2CCCC2(COc2nc(N3C[C@H]4CC[C@@H](C3)N4)c3cnc(-c4cc(O)cc5cccc(F)c45)c(F)c3n2)C1 (stereo partly drawn) [Example 22, 4-(4-((1R,5S)-3,8-diazabicyclo-[3.2.1]octan-3-yl)-8-fluoro-2-((2-methylenetetrahydro-1H-pyrrolizin-7a(5H)-yl)methoxy)pyrido[4,3-d]-pyrimidin-7-yl)-5-fluoronaphthalen-2-ol]

Continued, compound first:

Structure (SMILES)	EC50 [µM]
C#Cc1cccc2cc(O)cc(-c3ncc4c(N5CC6CC7(CC7)C(C5)N6)nc(OCC56CCCN5CCC6)nc4c3F)c12 (stereo not shown) [Example 53, 5-ethynyl-4-(8-fluoro-4-(3,8-diazaspiro[bicyclo[3.2.1]octane-6,1′-cyclopropan]-3-yl)-2-((tetrahydro-1H-pyrrolizin-7a(5H)-yl)methoxy)pyrido[4,3-d]pyrimidin-7-yl)naphthalen-2-ol]	0.266
C#Cc1cccc2cc(O)cc(-c3ncc4c(N5C[C@H]6CC[C@@H](C5)N6)nc(OCC56CCCN5Cc5c(C(F)(F)F)cccc56)nc4c3F)c12 (stereo partly drawn) [Example 34, 4-(4-((1R,5S)-3,8-diazabicyclo[3.2.1]octan-3-yl)-8-fluoro-2-((6-(trifluoromethyl)-2,3-dihydro-1H-pyrrolo[2,1-a]isoindol-9b(5H)-yl)methoxy)pyrido-[4,3-d]pyrimidin-7-yl)-5-ethynylnaphthalen-2-ol]	0.025
C#Cc1cccc2cc(O)cc(-c3ncc4c(N5C[C@H]6CC[C@@H](C5)N6)nc(OCC56CCCN5CC(=CC(F)F)C6)nc4c3F)c12 (stereo partly drawn) [Example 3, 4-(4-((1R,5S)-3,8-diazabicyclo[3.2.1]octan-3-yl)-2-((2-(2,2-difluoroethylidene)-tetrahydro-1H-pyrrolizin-7a(5H)-yl)methoxy)-8-fluoropyrido[4,3-d]pyrimidin-7-yl)-5-ethynylnaphthalen-2-ol]	0.0015
C#Cc1cccc2cc(O)cc(-c3ncc4c(N5CC6C=C(C#N)C(C5)N6)nc(OCC56CCCN5CCC6)nc4c3F)c12 (stereo not shown) [Example 7, 3-(7-(8-ethynyl-3-hydroxynaphthalen-1-yl)-8-fluoro-2-((tetrahydro-1H-pyrrolizin-7a(5H)-yl)methoxy)pyrido[4,3-d]pyrimidin-4-yl)-3,8-diazabicyclo[3.2.1]oct-6-ene-6-carbonitrile]	0.26
C#Cc1cccc2cc(O)cc(-c3ncc4c(N5CC6CCC(C5)N6)nc(OCC56CCCN5Cc5c(F)cccc56)nc4c3F)c12 (stereo not shown) [Example 24, 4-(4-(3,8-diazabicyclo[3.2.1]octan-3-yl)-8-fluoro-2-((6-fluoro-2,3-dihydro-1H-pyrrolo[2,1-a]isoindol-9b(5H)-yl)-methoxy)pyrido[4,3-d]pyrimidin-7-yl)-5-ethynylnaphthalen-2-ol]	0.0037
C#Cc1cccc2cc(O)cc(-c3ncc4c(N5C[C@H]6CC[C@@H](C5)N6)nc(OCC56CCCN5Cc5c(COC)cccc56)nc4c3F)c12 (stereo partly drawn) [Example 33, 4-(4-((1R,5S)-3,8-diazabicyclo-[3.2.1]octan-3-yl)-8-fluoro-2-((6-(methoxymethyl)-2,3-dihydro-1H-pyrrolo[2,1-a]isoindol-9b(5H)-yl)methoxy)-pyrido[4,3-d]pyrimidin-7-yl)-5-ethynylnaphthalen-2-ol]	0.0014
C#Cc1cccc2cc(O)cc(-c3ncc4c(N5CC6CCC(C5)N6)nc(OCC56CCCN5Cc5ccc(F)cc56)nc4c3F)c12 (stereo not shown) [Example 26, 4-(4-(3,8-diazabicyclo[3.2.1]octan-3-yl)-8-fluoro-2-((8-fluoro-2,3-dihydro-1H-pyrrolo[2,1-a]isoindol-9b(5H)-yl)-methoxy)pyrido[4,3-d]pyrimidin-7-yl)-5-ethynylnaphthalen-2-ol]	0.007
C#Cc1c(F)ccc2cccc(-c3c(Cl)cc4c(N5C[C@H]6CC[C@@H](C5)N6)nc(OCC56CCCN5CC(=C)C6)nc4c3F)c12 (stereo partly drawn) [Example 55, 4-((1R,5S)-3,8-diazabicyclo[3.2.1]octan-3-yl)-6-chloro-7-(8-ethynyl-7-fluoronaphthalen-1-yl)-8-fluoro-2-((2-methylenetetrahydro-1H-pyrrolizin-7a(5H)-yl)methoxy)quinazoline]	> 0.1
C#Cc1cccc2cc(O)cc(-c3ncc4c(N5CC6CCC(C5)N6)nc(OCC56CCCN5Cc5cc(F)ccc56)nc4c3F)c12 (stereo not shown) [Example 25, 4-(4-(3,8-diazabicyclo[3.2.1]octan-3-yl)-8-fluoro-2-((7-fluoro-2,3-dihydro-1H-pyrrolo[2,1-a]isoindol-9b(5H)-yl)-methoxy)pyrido[4,3-d]pyrimidin-7-yl)-5-ethynylnaphthalen-2-ol]	0.003
